Assay results reported in ChEMBL document CHEMBL1201862, “PubChem BioAssay data set” (2004).
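Tested at 5 concentrations; 48 h exposure; 96-well plates; endpoints linearly interpolated, else capped at highest concentration. The concentration for 50% growth inhibition is given as GI50.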 Activity calls are given as the source filed them. Rule as the data show it: active = GI50 up to about 1.1 µM and inactive = higher.

Experiments:
Test in all cases: NCI tumour cell line growth inhibition, 48 h
SK-MEL-5 = tested on: SK-MEL-5
NCI-H226 = tested on: NCI-H226
MDA-MB-435 = tested on: MDA-MB-435
SF-539 = tested on: SF-539
HL-60 = tested on: HL-60
OVCAR-4 = tested on: OVCAR-4
U-251 = tested on: U-251
BT-549 = tested on: BT-549
SK-OV-3 = tested on: SK-OV-3
EKVX = tested on: EKVX
MDA-MB-231 = tested on: MDA-MB-231
M14 = tested on: M14
786-0 = tested on: 786-0
SNB-19 = tested on: SNB-19
COLO 205 = tested on: COLO 205
CAKI-1 = tested on: CAKI-1
IGROV-1 = tested on: IGROV-1
HOP-92 = tested on: HOP-92
A498 = tested on: A498
NCI-H522 = tested on: NCI-H522

Measured: GI50

Clc1ccc(/C=c2\nc(-c3ccccc3)n3c2nc2ccccc23)cc1
inactive: SK-MEL-5 > 100 µM | NCI-H226 > 100 µM | MDA-MB-435 > 100 µM | SF-539 22.4 µM | HL-60 > 100 µM | OVCAR-4 56.4 µM | U-251 49.1 µM | BT-549 63.2 µM | SK-OV-3 43.3 µM | EKVX 19.7 µM | MDA-MB-231 61.5 µM | M14 > 100 µM | 786-0 56.8 µM | SNB-19 > 100 µM | COLO 205 > 100 µM | CAKI-1 51.4 µM | IGROV-1 > 100 µM | HOP-92 > 100 µM | A498 > 100 µM

CC1=CC(c2ccccc2)n2c(nc3cc4ccccc4cc32)N1 (stereo unspecified)
inactive: SK-MEL-5 > 100 µM | NCI-H226 > 100 µM | MDA-MB-435 > 100 µM | SF-539 > 100 µM | HL-60 > 100 µM | OVCAR-4 > 100 µM | U-251 > 100 µM | BT-549 > 100 µM | SK-OV-3 > 100 µM | EKVX > 100 µM | MDA-MB-231 > 100 µM | M14 > 100 µM | 786-0 > 100 µM | SNB-19 > 100 µM | COLO 205 > 100 µM | CAKI-1 > 100 µM | IGROV-1 > 100 µM | HOP-92 > 100 µM | A498 > 100 µM

O=[N+]([O-])c1ccc(CN(CCCl)OCCCl)cc1
inactive: SK-MEL-5 51.3 µM | NCI-H226 > 100 µM | MDA-MB-435 > 100 µM | SF-539 > 100 µM | HL-60 40 µM | OVCAR-4 56.9 µM | U-251 > 100 µM | BT-549 > 100 µM | SK-OV-3 > 100 µM | EKVX 92.7 µM | MDA-MB-231 > 100 µM | M14 > 100 µM | 786-0 > 100 µM | SNB-19 > 100 µM | COLO 205 > 100 µM | CAKI-1 64.9 µM | IGROV-1 75.9 µM | NCI-H522 31.3 µM

Nc1c2ccccc2nc2c1ccc1ncccc12
inactive: SK-MEL-5 28.4 µM | NCI-H226 13.9 µM | MDA-MB-435 27.8 µM | SF-539 14.7 µM | HL-60 4.32 µM | OVCAR-4 17.9 µM | U-251 39.1 µM | BT-549 48.3 µM | SK-OV-3 30.5 µM | EKVX 27.1 µM | MDA-MB-231 20.8 µM | M14 19.4 µM | 786-0 9.79 µM | SNB-19 36.8 µM | COLO 205 20.3 µM | CAKI-1 25.7 µM | IGROV-1 12.9 µM | NCI-H522 12 µM | HOP-92 22.8 µM

CCOC(=O)c1ccc(/N=C2/C(=S)N(c3ccc(C(=O)OCC)cc3)C(=N)N2/N=C/c2ccccc2)cc1
inactive: SK-MEL-5 3.37 µM | NCI-H226 15 µM | MDA-MB-435 > 10 µM | SF-539 20.1 µM | U-251 > 10 µM | BT-549 17.5 µM | SK-OV-3 24.1 µM | EKVX 27.1 µM | MDA-MB-231 8.05 µM | M14 11.8 µM | 786-0 11.3 µM | SNB-19 14.3 µM | COLO 205 5.06 µM | CAKI-1 13.9 µM | IGROV-1 30.6 µM | NCI-H522 2.34 µM | HOP-92 15.9 µM

OCC(O)COCn1nncc1Cn1ncc2c(SCc3ccccc3)ncnc21 (stereo unspecified)
inactive: SK-MEL-5 > 100 µM | MDA-MB-435 > 100 µM | SF-539 > 100 µM | OVCAR-4 > 100 µM | U-251 > 100 µM | BT-549 > 100 µM | SK-OV-3 > 100 µM | EKVX > 100 µM | MDA-MB-231 > 100 µM | M14 > 100 µM | 786-0 > 100 µM | SNB-19 > 100 µM | COLO 205 > 100 µM | CAKI-1 > 100 µM | IGROV-1 > 100 µM | NCI-H522 8.89 µM | A498 > 100 µM

CCCCCCCCCCCCCCCCCCNC(=S)N/C=C1\C(=O)Nc2ccccc2C1=O
inactive: SK-MEL-5 24.2 µM | NCI-H226 22.9 µM | MDA-MB-435 19.5 µM | SF-539 19.7 µM | HL-60 4.92 µM | OVCAR-4 20.6 µM | U-251 19.2 µM | BT-549 18.9 µM | SK-OV-3 19.2 µM | EKVX 13.7 µM | MDA-MB-231 14.9 µM | M14 18.3 µM | 786-0 15.6 µM | SNB-19 17.3 µM | COLO 205 17.4 µM | CAKI-1 16.9 µM | IGROV-1 5.83 µM | HOP-92 15.8 µM | A498 21.4 µM

COc1ccc(C(SC2C(O)C(CO)OC2n2ccc(N)nc2=O)(c2ccccc2)c2ccc(OC)cc2)cc1 (stereo unspecified)
inactive: SK-MEL-5 12.9 µM | NCI-H226 14.2 µM | MDA-MB-435 10.9 µM | SF-539 18.7 µM | HL-60 26.9 µM | OVCAR-4 24.8 µM | U-251 15.6 µM | BT-549 18.2 µM | SK-OV-3 12.2 µM | EKVX 18.1 µM | MDA-MB-231 16 µM | M14 12.7 µM | 786-0 16.8 µM | SNB-19 16 µM | COLO 205 14.6 µM | CAKI-1 31.3 µM | IGROV-1 21.9 µM | NCI-H522 13.4 µM | HOP-92 17.5 µM

O=C(NNc1cn[nH]c(=O)n1)c1cccc2nc3ccccc3nc12
inactive: SK-MEL-5 > 100 µM | NCI-H226 82.2 µM | MDA-MB-435 > 100 µM | SF-539 46.7 µM | HL-60 22.4 µM | OVCAR-4 68.2 µM | U-251 27.9 µM | BT-549 > 100 µM | SK-OV-3 33.4 µM | EKVX 35.8 µM | MDA-MB-231 26.5 µM | M14 > 100 µM | 786-0 45.2 µM | SNB-19 74 µM | COLO 205 > 100 µM | CAKI-1 46.6 µM | IGROV-1 38.2 µM | HOP-92 45.2 µM | A498 > 100 µM

O=[N+]([O-])c1ccc(C2c3c(O)nc(O)nc3Oc3nc(O)nc(O)c32)cc1
inactive: SK-MEL-5 > 100 µM | NCI-H226 > 100 µM | MDA-MB-435 > 100 µM | HL-60 33.7 µM | OVCAR-4 > 100 µM | U-251 > 100 µM | BT-549 > 100 µM | SK-OV-3 > 100 µM | EKVX > 100 µM | MDA-MB-231 > 100 µM | M14 > 100 µM | 786-0 > 100 µM | SNB-19 > 100 µM | COLO 205 > 100 µM | CAKI-1 > 100 µM | IGROV-1 > 100 µM | NCI-H522 17.9 µM | A498 > 100 µM

CC(C)(C)OC(=O)[C@@H]1ON2O[C@H](OC3CCCC3(c3ccccc3)c3ccccc3)C[C@H]3OC(=O)[C@@H]1[C@H]32 (stereo partly specified)
inactive: SK-MEL-5 41.6 µM | NCI-H226 36.9 µM | MDA-MB-435 57.9 µM | SF-539 > 100 µM | OVCAR-4 14.9 µM | U-251 > 100 µM | BT-549 66.7 µM | SK-OV-3 > 100 µM | EKVX 73.5 µM | MDA-MB-231 > 100 µM | M14 40.6 µM | 786-0 50.1 µM | SNB-19 > 100 µM | COLO 205 37.3 µM | CAKI-1 53.5 µM | IGROV-1 38.7 µM | NCI-H522 32.2 µM
